Common to all, as to assay: NCI tumour cell line growth inhibition, 48 h
The test system of experiment [1] is ACHN.
For experiment [2], the system named is CAKI-1.
Experiment [3] concerns EKVX.
For experiment [4], the system named is IGROV-1.
The test system of experiment [5] is M14.
The test system of experiment [6] is Malme-3M.
The subject of experiment [7] is NCI-H23.
Experiment [8] deals with NCI-H460.
Experiment [9] deals with OVCAR-3.
Experiment [10] has as its system OVCAR-4.
In experiment [11] the test system is OVCAR-8.
Experiment [12] deals with RXF 393.
The subject of experiment [13] is SK-MEL-28.
Experiment [14] concerns SK-MEL-2.
Experiment [15] relates to SK-MEL-5.
For experiment [16], the system named is SN12C.
In experiment [17] the test system is SNB-75.
Experiment [18] has as its system SW-620.
Experiment [19] concerns U-251.
Experiment [20] relates to UACC-62.

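Following 48 hours of exposure in 96-well plates, responses at five concentrations were used to interpolate endpoints linearly. The concentration for 50% growth inhibition is given as GI50.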 The source made the active and inactive calls. No stated cut-off is given here; in the data, active = GI50 up to about 1.1 µM and inactive = higher.

For `C[C@H](O)C(=O)SC[C@H](NC(=O)CC[C@@H](N)C(=O)O)C(=O)NCC(=O)O`, the GI50 in experiment [1], in experiment [2], in experiment [3], in [4], in [5] and in experiment [6] was > 100 µM (inactive) in each case. In addition, the GI50 in experiment [7], in [8], in experiment [9], in [10], in experiment [11] and in [12] was > 100 µM (inactive) each time. The GI50 is > 100 µM (inactive) in experiment [13]; > 100 µM (inactive) in [14]; > 100 µM (inactive) in experiment [15]; > 100 µM (inactive) in experiment [16]; 14.5 µM (inactive) in [17]; > 100 µM (inactive) in experiment [18]. In addition, the GI50 in experiment [19] and in experiment [20] was > 100 µM (inactive) throughout.

For `O=C(N/N=C/c1ccccc1)c1c(F)c(F)c(F)c(F)c1F`, the GI50 in experiment [1] was > 100 µM (inactive); in [2], > 100 µM (inactive); in [3] it was > 100 µM (inactive); in [4] it was > 100 µM (inactive); in experiment [5], 56.8 µM (inactive); in experiment [6], > 100 µM (inactive). Further, the GI50 in experiment [7], in [8], in experiment [9], in experiment [10], in experiment [11] and in experiment [12] was > 100 µM (inactive) each time. The GI50 in [13] was > 100 µM (inactive); in experiment [14], > 100 µM (inactive); in experiment [15], > 100 µM (inactive); in experiment [16] it was > 100 µM (inactive); in experiment [17] it was > 100 µM (inactive); in experiment [18], 96.8 µM (inactive). Further, the GI50 in [19] was > 100 µM (inactive); in experiment [20] it was 33.3 µM (inactive).

For the molecule `COc1ccc(C(=O)/C=C/c2ccc(OCC(=O)N3CCN(c4ccccc4)CC3)cc2)cc1`, the GI50 was 63.1 µM (inactive) in experiment [1]; 77.8 µM (inactive) in experiment [2]; > 70.5 µM (inactive) in experiment [3]; 34 µM (inactive) in experiment [4]; > 100 µM (inactive) in experiment [5]; > 80.7 µM (inactive) in [6]. Besides, the GI50 in [7] was 38.6 µM (inactive); in [8], 82.4 µM (inactive); in experiment [9], 74.3 µM (inactive); in experiment [10] it was 46.9 µM (inactive); in experiment [11], 71 µM (inactive); in experiment [12], 26.1 µM (inactive). The GI50 was > 100 µM (inactive) in experiment [13]; 45.4 µM (inactive) in [14]; 59.6 µM (inactive) in experiment [15]; > 65.9 µM (inactive) in [16]; 23.7 µM (inactive) in experiment [17]; 72.4 µM (inactive) in experiment [18]. Besides, the GI50 in experiment [19] is 28.4 µM (inactive); in experiment [20], 75.2 µM (inactive).

On to `CCOC(=O)c1cc(C2CCN(Cc3ccccc3)C2=S)c(C(=O)C=[N+]=[N-])[nH]1` (centres undefined), for which the GI50 is 27.2 µM (inactive) in experiment [1]; 68.5 µM (inactive) in [2]; 26.7 µM (inactive) in experiment [3]; 24.7 µM (inactive) in experiment [4]; 20.1 µM (inactive) in [5]; 28.7 µM (inactive) in experiment [6]. Moreover, the GI50 in [7] was 21.7 µM (inactive); in experiment [8], 23.9 µM (inactive); in [9], 17.5 µM (inactive); in [10], 54.7 µM (inactive); in [11], 37.3 µM (inactive); in [12], 31 µM (inactive). Moreover, the GI50 in experiment [13] is 26 µM (inactive); in experiment [14], 21.2 µM (inactive); in [15], 19.3 µM (inactive); in experiment [17] it was 29.4 µM (inactive); in [18] it was 38.6 µM (inactive); in experiment [19] it was 25.3 µM (inactive). Moreover, the GI50 in [20] was 18.3 µM (inactive).

As to `O=C1C[C@H](Sc2ccccc2)C2(OCCO2)[C@@H](Sc2ccccc2)C1`, the GI50 in [1] was 1.77 µM (inactive); in [2] it was 3.1 µM (inactive); in experiment [3] it was 4.52 µM (inactive); in experiment [4] it was 1.5 µM (inactive); in experiment [5], 1.78 µM (inactive); in [6], 1.81 µM (inactive). The GI50 in experiment [7] was 2.09 µM (inactive); in experiment [8] it was 5.19 µM (inactive); in experiment [9] it was 2.16 µM (inactive); in experiment [10], 5.07 µM (inactive); in experiment [11], 1.73 µM (inactive); in [12], 1 µM (active). The GI50 was 2.38 µM (inactive) in [13]; 10.2 µM (inactive) in experiment [14]; 1.64 µM (inactive) in [15]; 2.7 µM (inactive) in experiment [16]; 11.9 µM (inactive) in experiment [17]; 1.24 µM (inactive) in experiment [18]. Besides, the GI50 was 1.78 µM (inactive) in experiment [19] and 2.01 µM (inactive) in [20].

Consider `CC[C@]12C=CCN3CC[C@@]4(c5cc(Br)c(OC)c([N+](=O)[O-])c5N(C)[C@H]4[C@@](O)(C(=O)OC)[C@@H]1OC(C)=O)[C@@H]32`, for which the GI50 in experiment [1] was 62.4 µM (inactive); in experiment [2] it was 40.3 µM (inactive); in [3], 29.6 µM (inactive); in [4], 24.1 µM (inactive); in experiment [5], 55.7 µM (inactive); in experiment [6], 89.5 µM (inactive). Moreover, the GI50 in experiment [7] is 56.9 µM (inactive); in experiment [8], 40.8 µM (inactive); in experiment [9], 34.4 µM (inactive); in experiment [10], 52.8 µM (inactive); in [11], 30.5 µM (inactive); in experiment [12], 98.2 µM (inactive). For the same molecule, the GI50 in experiment [13] was 63.4 µM (inactive); in experiment [14], 74.1 µM (inactive); in experiment [15], 36.2 µM (inactive); in [16], 88.7 µM (inactive); in experiment [17], 30.5 µM (inactive); in experiment [18], 23.8 µM (inactive). Moreover, the GI50 was 43.4 µM (inactive) in experiment [19] and > 100 µM (inactive) in experiment [20].

For `Cc1cc2cc3c(C)cc(=O)oc3c(C)c2o1` [TRIOXSALEN], the GI50 was > 100 µM (inactive) in experiment [1]; > 100 µM (inactive) in experiment [2]; 90.6 µM (inactive) in experiment [3]; > 100 µM (inactive) in experiment [4]; > 100 µM (inactive) in experiment [5]; > 100 µM (inactive) in [6]. Besides, the GI50 in [7], in experiment [8], in [9], in [10], in experiment [11] and in experiment [12] was > 100 µM (inactive) each time. Further, the GI50 in experiment [13], in [14], in experiment [15], in experiment [16], in experiment [17] and in experiment [18] was > 100 µM (inactive) each time. In addition, the GI50 in experiment [19] and in experiment [20] was > 100 µM (inactive) throughout.

For the molecule `CC(C)=CC1(C)/C(=N\O)C(C)(CC(C)C)C(=O)N1O` (centres undefined), the GI50 in experiment [1], in experiment [2], in experiment [3], in experiment [4], in [5] and in [6] was > 100 µM (inactive) throughout. Moreover, the GI50 in experiment [7], in experiment [8], in experiment [9], in experiment [10], in experiment [11] and in experiment [12] was > 100 µM (inactive) each time. The GI50 in experiment [13], in experiment [14], in [15], in experiment [16], in [17] and in experiment [18] was > 100 µM (inactive) each time. For the same molecule, the GI50 in experiment [19] and in experiment [20] was > 100 µM (inactive) throughout.

The record behind these values is ChEMBL document CHEMBL1201862, “PubChem BioAssay data set” (2004).
